# From patent US9453026B2, “ACC inhibitors and uses thereof” (Gilead Apollo, Inc., priority 2011, dated 2016)
# “And” between values parts separate entries of the source, which are not always exact repeats. Equal values may be shown once. Read-outs that look alike come from different tables or passages of the source.
# How the values were obtained:
# [1] = molecular target: ACC1 (Homo sapiens, UniProt Q13085); test: In vitro ACC1 inhibition assay (ADP-Glo); assay type: biochemical
# In short: (§1)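 Enzyme (human ACC1 or ACC2) and compound, serially diluted 1:3 over 11 points from a 600 uM DMSO stock, were preincubated 15 min before substrate addition.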
# [2] = molecular target: ACC2 (Homo sapiens, UniProt O00763); test: In vitro ACC2 inhibition assay (ADP-Glo); assay type: biochemical
# In short: as §1
# [3] = system: C. albicans ATCC 90028; test: Anti-Fungal Activity Assay (broth microtiter MIC); assay type: cell-based; conditions: 3 replicates, test compounds read at 48 h
# Description: (§2) Compounds of the present invention were evaluated in an Anti-Fungal Activity Assay. An exemplary procedure for the assay, which measures the susceptibility of various Candida species to anti-fungal compounds, follows. Compounds to be tested (including fluconazole and amphotericin B) were dissolved in DMSO to obtain a solution having a concentration of 1 mg/mL. […] All species were grown from frozen stock by directly plating on to freshly prepared Sabouraud Dextrose agar (BD, Difco) and incubated overnight in ambient air at 35° C. for 24 h. A direct suspension was prepared in RPMI 1640+MOPS (Lonza, Biowhittaker) by taking individual colonies from the overnight cultures using sterile swabs soaked in sterile saline. The concentration of the suspension was determined using pre-determined standard curves. […] The original CLSI guidelines focused on reading Candida MICs after 48 h of incubation. As reading after only 24 h offers a clear advantage of patient care, QC limits are being established for all drugs at 24 h. That being said there are no known interpretive breakpoints for amphotericin B at 24 h and the current fluconazole interpretive breakpoints are based on a 48 h reading. The MIC breakpoints for the Pharmaron test compounds were recorded at 48 h, and for the soraphen the 24 h time-point was added. All MIC determinations were achieved by visually comparing the growth found in the antibiotic challenged wells to that of the growth control.
# [4] = system: C. krusei ATCC 6258; test: Anti-Fungal Activity Assay (broth microtiter MIC); assay type: cell-based; conditions: 3 replicates, test compounds read at 48 h
# Description: as §2
# [5] = system: C. parapsilosis ATCC 22019; test: Anti-Fungal Activity Assay (broth microtiter MIC); assay type: cell-based; conditions: 3 replicates, test compounds read at 48 h
# Description: as §2
# [6] = Candida albicans, ATCC90028, 48 h, read-out: MIC
# [7] = Pichia kudriavzevii, ATCC6258, 48 h, read-out: MIC
# [8] = Lodderomyces parapsilosis, ATCC22019, 48 h, read-out: MIC
# ACC2, sequence (O00763 whole entry, species assumed): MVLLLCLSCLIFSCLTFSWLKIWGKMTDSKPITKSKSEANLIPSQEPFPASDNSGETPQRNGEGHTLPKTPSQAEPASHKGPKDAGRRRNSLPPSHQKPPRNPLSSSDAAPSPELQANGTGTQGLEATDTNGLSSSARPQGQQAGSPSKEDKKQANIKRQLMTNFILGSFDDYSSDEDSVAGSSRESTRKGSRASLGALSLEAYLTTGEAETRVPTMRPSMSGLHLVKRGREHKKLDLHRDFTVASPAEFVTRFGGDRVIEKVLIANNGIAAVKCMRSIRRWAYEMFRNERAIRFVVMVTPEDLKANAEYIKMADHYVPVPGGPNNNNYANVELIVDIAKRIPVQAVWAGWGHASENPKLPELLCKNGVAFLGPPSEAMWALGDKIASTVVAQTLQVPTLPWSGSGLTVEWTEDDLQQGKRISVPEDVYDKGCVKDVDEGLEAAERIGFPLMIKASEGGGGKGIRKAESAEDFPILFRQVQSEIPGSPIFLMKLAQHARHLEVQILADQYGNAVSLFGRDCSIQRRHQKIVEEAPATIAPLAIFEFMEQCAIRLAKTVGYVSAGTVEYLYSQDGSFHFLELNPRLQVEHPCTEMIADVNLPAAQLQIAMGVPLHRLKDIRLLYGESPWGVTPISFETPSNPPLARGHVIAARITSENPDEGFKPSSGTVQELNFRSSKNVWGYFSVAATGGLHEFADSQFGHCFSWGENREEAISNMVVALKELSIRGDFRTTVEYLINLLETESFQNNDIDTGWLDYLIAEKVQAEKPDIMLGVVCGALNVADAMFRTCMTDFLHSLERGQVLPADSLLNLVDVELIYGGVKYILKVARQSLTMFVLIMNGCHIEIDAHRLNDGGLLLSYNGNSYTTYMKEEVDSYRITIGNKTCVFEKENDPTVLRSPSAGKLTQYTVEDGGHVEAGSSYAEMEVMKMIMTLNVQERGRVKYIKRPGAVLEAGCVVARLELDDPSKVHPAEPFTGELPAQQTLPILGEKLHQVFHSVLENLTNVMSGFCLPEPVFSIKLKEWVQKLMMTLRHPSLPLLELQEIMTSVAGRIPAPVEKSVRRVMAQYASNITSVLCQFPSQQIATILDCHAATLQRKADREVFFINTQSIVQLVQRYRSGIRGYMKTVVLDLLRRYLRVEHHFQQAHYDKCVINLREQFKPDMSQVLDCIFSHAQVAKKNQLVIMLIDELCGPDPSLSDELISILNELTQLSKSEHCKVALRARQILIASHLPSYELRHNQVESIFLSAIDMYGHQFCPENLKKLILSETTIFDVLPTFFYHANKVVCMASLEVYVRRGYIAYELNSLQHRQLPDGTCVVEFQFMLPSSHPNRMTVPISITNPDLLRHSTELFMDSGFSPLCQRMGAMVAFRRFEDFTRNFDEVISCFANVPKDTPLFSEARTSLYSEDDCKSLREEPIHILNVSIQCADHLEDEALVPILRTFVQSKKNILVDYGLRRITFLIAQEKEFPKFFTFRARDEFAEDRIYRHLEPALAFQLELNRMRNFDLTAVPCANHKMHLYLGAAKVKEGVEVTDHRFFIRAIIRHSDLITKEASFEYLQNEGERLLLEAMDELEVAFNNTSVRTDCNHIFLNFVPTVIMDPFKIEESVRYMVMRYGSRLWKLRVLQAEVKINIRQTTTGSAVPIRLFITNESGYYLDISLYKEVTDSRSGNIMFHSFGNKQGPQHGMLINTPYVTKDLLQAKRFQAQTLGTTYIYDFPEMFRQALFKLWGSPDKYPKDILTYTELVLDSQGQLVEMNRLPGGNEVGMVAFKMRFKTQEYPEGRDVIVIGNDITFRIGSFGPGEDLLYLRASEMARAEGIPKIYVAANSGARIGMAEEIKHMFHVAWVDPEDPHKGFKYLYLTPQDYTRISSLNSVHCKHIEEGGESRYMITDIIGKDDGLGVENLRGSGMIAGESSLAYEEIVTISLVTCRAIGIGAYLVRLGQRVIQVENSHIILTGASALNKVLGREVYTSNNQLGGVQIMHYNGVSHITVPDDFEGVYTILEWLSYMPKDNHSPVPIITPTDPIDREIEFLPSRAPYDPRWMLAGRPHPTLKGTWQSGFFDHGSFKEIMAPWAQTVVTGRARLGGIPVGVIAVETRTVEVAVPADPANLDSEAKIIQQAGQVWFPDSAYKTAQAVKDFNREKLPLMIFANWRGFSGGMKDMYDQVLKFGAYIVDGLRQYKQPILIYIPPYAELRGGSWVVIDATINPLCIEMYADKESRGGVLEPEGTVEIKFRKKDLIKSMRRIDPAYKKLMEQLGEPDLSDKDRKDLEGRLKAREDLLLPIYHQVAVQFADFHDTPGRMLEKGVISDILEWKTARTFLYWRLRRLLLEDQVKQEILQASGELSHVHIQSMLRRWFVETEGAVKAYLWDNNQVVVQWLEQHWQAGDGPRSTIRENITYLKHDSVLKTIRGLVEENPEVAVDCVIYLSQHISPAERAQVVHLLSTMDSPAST
SMILES,IC50 ([1]; read-out: ACC1),IC50 ([2]; read-out: ACC2),also measured
"Cc1c(-c2ncco2)sc2c1c(=O)n(C(C)(C)C(=O)O)c(=O)n2C[C@H](OC1CCOCC1)c1ccccc1 [I-162, 2-methyl-2-[5-methyl-1-[(2R)-2-(oxan-4-yloxy)-2-phenylethyl]-6-(1,3-oxazol-2-yl)-2,4-dioxo-1H,2H,3H,4H-thieno[2,3-d]pyrimidin-3-yl]propanoic acid]",< 100 nM,< 1000 nM,"MIC [3]: >64 µg/mL; MIC [3, 6]: > 64 µg/mL; MIC [4]: >64 µg/mL; MIC [4, 7]: > 64 µg/mL; MIC [5]: >64 µg/mL; MIC [5, 8]: > 64 µg/mL"
"OC(Cn1cncn1)(Cn1cncn1)c1ccc(F)cc1F [Fluc., fluconazole, reference compound]",,,"MIC [3]: 1 µg/mL and 2 µg/mL; MIC [3, 6]: 1 µg/mL; MIC [4]: 32 ug/mL (2×) and 2 ug/mL; MIC [5]: 2 µg/mL and 4 µg/mL; MIC [5, 8]: 2 µg/mL"
"Cc1c(-c2ncco2)sc2c1c(=O)n(C(C)(C)C(=O)O)c(=O)n2C[C@@H](OC1CCOCC1)c1ccccc1CC#N [I-303, (S)-2-(1-(2-(2-(cyanomethyl)phenyl)-2-((tetrahydro-2H-pyran-4-yl)oxy)ethyl)-5-methyl-6-(oxazol-2-yl)-2,4-dioxo-1,2-dihydrothieno[2,3-d]pyrimidin-3(4H)-yl)-2-methylpropanoic acid]",< 100 nM,< 100 nM,
"Cc1c(-c2ncco2)sc2c1c(=O)n(C(C)(C)C(=O)O)c(=O)n2C[C@H](OC1CCOCC1)c1ccccc1COC(C)C [I-297, 2-methyl-2-[5-methyl-1-[(2R)-2-(oxan-4-yloxy)-2-[2-[(propan-2-yloxy)methyl]phenyl]ethyl]-6-(1,3-oxazol-2-yl)-2,4-dioxo-1H,2H,3H,4H-thieno[2,3-d]pyrimidin-3-yl]propanoic acid]",< 100 nM,< 100 nM,
"CCc1ccccc1[C@H](Cn1c(=O)n(C(C)(C)C(=O)O)c(=O)c2c(C)c(-c3ncco3)sc21)OC1CCOCC1 [I-249, 2-[1-[(2R)-2-(2-ethylphenyl)-2-(oxan-4-yloxy)ethyl]-5-methyl-6-(1,3-oxazol-2-yl)-2,4-dioxo-1H,2H,3H,4H-thieno[2,3-d]pyrimidin-3-yl]-2-methylpropanoic acid]",< 100 nM,< 100 nM,
"Cc1c(-c2ncco2)sc2c1c(=O)n(C(C)(C)C(=O)O)c(=O)n2C[C@H](O[C@H]1CC[C@H](O)CC1)c1ccccc1OC(C)C [I-294, 2-(1-((R)-2-(((1r,4R)-4-hydroxycyclohexyl)oxy)-2-(2-isopropoxyphenyl)ethyl)-5-methyl-6-(oxazol-2-yl)-2,4-dioxo-1,2-dihydrothieno[2,3-d]pyrimidin-3(4H)-yl)-2-methylpropanoic acid]",< 100 nM,< 100 nM,
"Cc1c(-c2ncco2)sc2c1c(=O)n(C(C)(C)C(=O)O)c(=O)n2C[C@H](O[C@H]1CC[C@](C)(O)CC1)c1ccccc1 [I-163, 2-(1-((R)-2-(((1r,4R)-4-hydroxy-4-methylcyclohexyl)oxy)-2-phenylethyl)-5-methyl-6-(oxazol-2-yl)-2,4-dioxo-1,2-dihydrothieno[2,3-d]pyrimidin-3(4H)-yl)-2-methylpropanoic acid]",< 1000 nM,< 1000 nM,
"Cc1ccccc1[C@H](Cn1c(=O)n(C(C)(C)C(=O)O)c(=O)c2c(C)c(-c3ncco3)sc21)OC1CCOCC1 [I-282, 2-methyl-2-[5-methyl-1-[(2R)-2-(2-methylphenyl)-2-(oxan-4-yloxy)ethyl]-6-(1,3-oxazol-2-yl)-2,4-dioxo-1H,2H,3H,4H-thieno[2,3-d]pyrimidin-3-yl]propanoic acid]",< 100 nM,< 100 nM,
"Cc1c(-c2ncco2)sc2c1c(=O)n(C(C)(C)C(=O)O)c(=O)n2C[C@H](OC1CCC(=O)CC1)c1ccccc1 [I-145, (R)-2-methyl-2-(5-methyl-6-(oxazol-2-yl)-2,4-dioxo-1-(2-((4-oxocyclohexyl)oxy)-2-phenylethyl)-1,2-dihydrothieno[2,3-d]pyrimidin-3(4H)-yl)propanoic acid]",< 100 nM,< 1000 nM,
"COc1ccccc1[C@H](Cn1c(=O)n(C(C)(C)C(=O)O)c(=O)c2c(C)c(-c3ncco3)sc21)OCC1CCOCC1 [I-259, 2-[1-[(2R)-2-(2-methoxyphenyl)-2-(oxan-4-ylmethoxy)ethyl]-5-methyl-6-(1,3-oxazol-2-yl)-2,4-dioxo-1H,2H,3H,4H-thieno[2,3-d]pyrimidin-3-yl]-2-methylpropanoic acid]",< 100 nM,< 100 nM,
"[2H]C([2H])([2H])Oc1ccccc1[C@H](Cn1c(=O)n(C(C)(C)C(=O)O)c(=O)c2c(C)c(-c3ncco3)sc21)OC1CCOCC1 [I-271, 2-[1-[(2R)-2-[2-(d3)methoxyphenyl]-2-(oxan-4-yloxy)ethyl]-5-methyl-6-(1,3-oxazol-2-yl)-2,4-dioxo-1H,2H,3H,4H-thieno[2,3-d]pyrimidin-3-yl]-2-methylpropanoic acid]",,,IC50 [1]: < 100 nM; IC50 [2]: < 100 nM
"C[C@@H]1[C@H](O)[C@@H](C)/C=C/C=C/C=C/C=C/C=C/C=C/C=C/[C@H](O[C@@H]2O[C@H](C)[C@@H](O)[C@H](N)[C@@H]2O)C[C@@H]2O[C@](O)(C[C@@H](O)C[C@@H](O)[C@H](O)CC[C@@H](O)C[C@@H](O)CC(=O)O[C@H]1C)C[C@H](O)[C@H]2C(=O)O [Amph. B, amphotericin B, reference compound]",,,MIC [3]: 0.5 ug/mL (2×) and 1 ug/mL; MIC [4]: 1 µg/mL; MIC [5]: 1 µg/mL

# Continued, in another order:
IC50 ([1]; read-out: ACC1),IC50 ([2]; read-out: ACC2),SMILES,also measured
< 100 nM,< 100 nM,"Cc1c(-c2ncco2)sc2c1c(=O)n(C(C)(C)C(=O)O)c(=O)n2C[C@H](O[C@H]1CC[C@H](O)CC1)c1ccccc1 [I-165, 2-[1-[(2R)-2-[(4-hydroxycyclohexyl)oxy]-2-phenylethyl]-5-methyl-6-(1,3-oxazol-2-yl)-2,4-dioxo-1H,2H,3H,4H-thieno[2,3-d]pyrimidin-3-yl]-2-methylpropanoic acid]","MIC [3]: >64 µg/mL; MIC [3, 6]: > 64 µg/mL; MIC [4]: >64 µg/mL; MIC [4, 7]: > 64 µg/mL; MIC [5]: >64 µg/mL; MIC [5, 8]: > 64 µg/mL"
< 5000 nM,< 5000 nM,"CCOC(=O)c1sc2c(c1C)c(=O)n(CC(=O)O)c(=O)n2CCc1ccccc1Cl [I-31, 2-[1-[2-(2-chlorophenyl)ethyl]-6-(ethoxycarbonyl)-5-methyl-2,4-dioxo-1H,2H,3H,4H-thieno[2,3-d]pyrimidin-3-yl]acetic acid]",
< 5000 nM,< 5000 nM,"CCOC(=O)c1sc2c(c1C)c(=O)n(CCC(N)=O)c(=O)n2CCc1ccccc1 [I-55, ethyl 3-(2-carbamoylethyl)-5-methyl-2,4-dioxo-1-(2-phenylethyl)-1H,2H,3H,4H-thieno[2,3-d]pyrimidine-6-carboxylate]",
< 100 nM,< 1000 nM,"CCOC(=O)c1sc2c(c1C)c(=O)n(C(C)(C)C(=O)O)c(=O)n2C[C@H](O[C@H](C)CC)c1ccccc1 [I-130, 2-[1-[(2R)-2-[(2R)-butan-2-yloxy]-2-phenylethyl]-6-(ethoxycarbonyl)-5-methyl-2,4-dioxo-1H,2H,3H,4H-thieno[2,3-d]pyrimidin-3-yl]-2-methylpropanoic acid]",
< 100 nM,< 100 nM,"CCc1ccccc1[C@H](Cn1c(=O)n(C(C)(C)C(=O)O)c(=O)c2c(C)c(-c3ncco3)sc21)OC(C)C [I-180, 2-[1-[(2R)-2-(2-ethylphenyl)-2-(propan-2-yloxy)ethyl]-5-methyl-6-(1,3-oxazol-2-yl)-2,4-dioxo-1H,2H,3H,4H-thieno[2,3-d]pyrimidin-3-yl]-2-methylpropanoic acid]",
< 100 nM,< 100 nM,"COc1ccccc1[C@H](Cn1c(=O)n(C(C)(C)C(=O)O)c(=O)c2c(C)c(-c3ncco3)sc21)OCCO [I-254, 2-[1-[(2R)-2-(2-hydroxyethoxy)-2-(2-methoxyphenyl)ethyl]-5-methyl-6-(1,3-oxazol-2-yl)-2,4-dioxo-1H,2H,3H,4H-thieno[2,3-d]pyrimidin-3-yl]-2-methylpropanoic acid]",
< 5000 nM,< 5000 nM,CCOC(=O)c1sc2c(c1C)c(=O)n(CCc1nnn[nH]1)c(=O)n2CCc1ccccc1 [I-61],
< 100 nM,< 1000 nM,"CCOC(=O)c1sc2c(c1C)c(=O)n(C(C)(C)C(=O)O)c(=O)n2CCc1ccccc1CC [I-100, 2-[6-(ethoxycarbonyl)-1-[2-(2-ethylphenyl)ethyl]-5-methyl-2,4-dioxo-1H,2H,3H,4H-thieno[2,3-d]pyrimidin-3-yl]-2-methylpropanoic acid]",
< 5000 nM,< 5000 nM,"CCOC(=O)c1sc2c(c1C)c(=O)n(CCC(=O)O)c(=O)n2CCc1ccccc1 [I-46, 3-[6-(ethoxycarbonyl)-5-methyl-2,4-dioxo-1-(2-phenylethyl)-1H,2H,3H,4H-thieno[2,3-d]pyrimidin-3-yl]propanoic acid]",
